Where two headings read alike, the source gives them in different places.
Columns and labels:
[1] = test system: L. infantum promastigotes; test: Morphological differentiation of Leishmania promastigotes; assay type: cell-based, Leishmania infantum; conditions: 50 ng/mL, 23 °C, 48 h (Figure 6)
Description: L. infantum promastigotes were diluted in complete medium to 4 × 10^7 parasites/mL and 250 µL of the suspension were seeded into the 24 wells plates and incubated at 23 °C in the presence of geldanamycin, CE or compound 2 at the final concentration of 50 ng/mL. Cultures without drugs incubated at 23 °C or at 37 °C were used as negative and positive control, respectively. After 24 or 48 h of incubation, parasite morphology was evaluated by optical microscopy at 100× (Eclipse Ti Series, Nikon, Minato, Tokyo, Japan) on Giemsa stained smears (a mixture of eosin, methylene blue and Azure-B diluted 1:10). The percent of round promastigotes in treated and non-treated cells was determined. Images were taken at the same magnification by using a digital camera (Nikon Digital Sight). About 500 promastigotes were counted in 4 random fields.
The compounds were incubated (23 °C, physiological pH) with L. infantum promastigotes at a sub-IC50 concentration of 50 ng/mL. […] After 24 h and 48 h the presence of round, amastigote-like cells, was monitored (Figure 6). A negative and positive control experiment (NC and PC, Figure 6a,b) were also conducted growing the promastigotes at 23 °C and 37 °C, respectively.

[2] = test system: L. infantum promastigotes; test: Antileishmanial activity on L. infantum promastigotes (MTT); assay type: cell-based
L. tropica promastigotes = test: Antileishmanial activity on L. tropica promastigotes (MTT); assay type: cell-based
Description: Promastigote stage of L. infantum (MHOM/TN/80/IPT1, kindly provided by Dr. M. Gramiccia and Dr. T. Di Muccio, ISS, Roma) and L. tropica (MHOM/SY/2012/ISS3130) were cultured in RPMI 1640 medium (EuroClone) supplemented with 15% heat-inactivated fetal calf serum (EuroClone, Milan, Italy), 20 mM HEPES, and 2 mM L-glutamine at 23 °C. The MTT (3-[4.5-dimethylthiazol-2-yl]-2.5-diphenyltetrazolium bromide) method was used to estimate the 50% inhibitory concentration (IC50), with some modifications. Compounds were dissolved in DMSO and then diluted with medium to achieve the required concentrations. Test compounds were placed in 96 wells round bottom microplates and seven serial dilutions made. Amphotericin B was used as the reference antileishmanial drug. Parasites were diluted in complete medium to 5 × 10^6 parasites/mL and 100 μL of the suspension was seeded into the plates and incubated at 23 °C for 72 h. Then 20 μL of MTT solution (5 mg/mL) was added into each well, after 3 h the plates were centrifuged, the supernatants discarded and the resulting pellets dissolved in 100 μL of lysing buffer consisting of 20% (w/v) of a solution of SDS (Sigma), 40% of N,N-dimethylformamide (Merck) in H2O. The absorbance of the obtained solutions was measured at a wavelength of 550 nm with a reference at 650 nm with a microplate spectrophotometer (Synergy 4-Biotek, Milan, Italy) and analyzed with the Gen5® software for data processing.
The results are expressed as IC50, the dose of compound that is necessary to inhibit cell growth by 50%; each IC50 value is the mean ± standard deviation of at least three separate experiments performed in duplicate.

THP-1 = test: Cytotoxicity on THP-1 (MTT); assay type: cell-based, human; conditions: Homo sapiens, THP-1; PMA-differentiated, 72 h, MTT; read-out: Healthy Cell Lines IC50, THP-1
Description: Cytotoxicity was evaluated on human microvascular endothelial cells (HMEC-1, provided by the Centers for Disease Control, Atlanta, GA, USA), on immortalized mouse C57Bl/6 bone marrow derived macrophages (BMDM) from wild type lineage (generated in the laboratories of Drs. Douglas Golenbock and Kate Fitzgerald, University of Massachusetts, Worcester, MA, USA) and on a human acute monocytic leukaemia cell line (THP-1).
HMEC-1 were maintained in MCDB 131 medium (Invitrogen, Milan, Italy) supplemented with 10% fetal calf serum (HyClone), 10 ng/mL of epidermal growth factor, 1 μg/mL of hydrocortisone, 2 mM glutamine and 20 mM HEPES buffer, at 37 °C in 5% CO2. BMDM were maintained in DMEM (Euroclone) medium supplemented with 10% fetal bovine serum (HyClone, Celbio, Milan, Italy), 2 mM glutamine, and 25 mM of HEPES buffer solution (Euroclone). THP-1 were maintained in RPMI supplemented with 10% heat-inactivated FCS, 50 µM 2-mercaptoethanol, 10 µM sodium pyruvate, 20 mM HEPES, and 2 mM glutamine. In order to achieve differentiation into macrophages, cells were treated with 10 ng/mL phorbol myristate acetate (PMA) for 72 h.
For the cytotoxicity assay, cells were seeded in 96 well flat bottom tissue culture clusters (Costar, New York, NY, USA) at the following concentrations: HMEC 10^5 cell/mL, BMDM at 10^6 cell/mL, THP1 at 5 × 10^5 cell/mL. After 24 h, cells were treated with serial dilutions of test compounds in a final volume of 200 µL/well. Cell proliferation was evaluated after 72 h using the MTT assay.
The absorbances were measured with a microplate spectrophotometer (Synergy 4-Biotek) at a test wavelength of 550 nm and a reference wavelength of 650 nm. The results are expressed as IC50 as the concentration inhibiting 50% of cell growth. Each IC50 value is the mean and standard deviation of at least three separate experiments performed in duplicate.

L. infantum amastigotes = test: Antileishmanial activity on intramacrophage amastigotes of L. infantum; assay type: cell-based, Leishmania infantum; conditions: Leishmania infantum; infected THP-1 macrophages, 72 h
Description: Cell monolayers were then washed and incubated in the presence of test compounds for 72 h. Slides were fixed with methanol and stained with Giemsa. The percentage of infected macrophages in treated and non-treated cells was determined by light microscopy.

[3] = Leishmania infantum, 72 h, 23 °C, MTT, read-out: Leishmania Promastigotes IC50, L. infantum
[4] = Leishmania tropica, 72 h, 23 °C, MTT, read-out: Leishmania Promastigotes IC50, L. tropica
[5] = 72 h, 23 °C, MTT; read-out: Leishmania Promastigotes IC50, L. infantum
[6] = 72 h, 23 °C, MTT; read-out: Leishmania Promastigotes IC50, L. tropica

IC50 (L. infantum amastigotes)	IC50 [2, 3]	IC50 (L. tropica promastigotes; [4])	melting point	IC50 [2, 5]	IC50 (L. tropica promastigotes; [6])	SMILES	round amastigote-like cells (morphological differentiation) [1]	IC50 ([2]; Leishmania infantum; 72 h, 23 °C, MTT; read-out: Leishmania Promastigotes IC50, L. infantum)	IC50 (L. tropica promastigotes; Leishmania tropica; 72 h, 23 °C, MTT; read-out: Leishmania Promastigotes IC50, L. tropica)	IC50 (THP-1)
–	–	–	–	–	–	CC1=C(O)C(=O)C=C2C1=CC=C1[C@@]2(C)CC[C@@]2(C)[C@@H]3C[C@](C)(C(=O)O)CC[C@]3(C)CC[C@]12C [CE, celastrol]	neither CE nor compound 3 produced this effect	210 ± 70 nM	490 ± 170 nM	900 ± 300 nM
190 ± 110 nM	60 ± 20 nM	90 ± 30 nM	137 to 138.6 °C	–	–	CC1=C(O)C(=O)C=C2C1=CC=C1[C@@]2(C)CC[C@@]2(C)[C@@H]3C[C@](C)(C(=O)NCCN4CCCCC4)CC[C@]3(C)CC[C@]12C [compound 1, (2R,4aS,6aS,12bR,14aS,14bR)-10-hydroxy-2,4a,6a,9,12b,14a-hexamethyl-11-oxo-N-(2-(piperidin-1-yl)ethyl)-1,2,3,4,4a,5,6,6a,11,12b,13,14,14a,14b-tetradecahydropicene-2-carboxamide]	–	–	–	2080 ± 240 nM
130 ± 90 nM	< 100 nM	< 100 nM	135.6 to 138 °C	60 ± 10 nM	80 ± 40 nM	CC1=C(O)C(=O)C=C2C1=CC=C1[C@@]2(C)CC[C@@]2(C)[C@@H]3C[C@](C)(C(=O)NCCN4CCCC4)CC[C@]3(C)CC[C@]12C [compound 3, (2R,4aS,6aS,12bR,14aS,14bR)-10-hydroxy-2,4a,6a,9,12b,14a-hexamethyl-11-oxo-N-(2-(pyrrolidin-1-yl)ethyl)-1,2,3,4,4a,5,6,6a,11,12b,13,14,14a,14b-tetradecahydropicene-2-carboxamide]	neither CE nor compound 3 produced this effect	–	–	2790 ± 440 nM
520 ± 280 nM	120 ± 20 nM	120 ± 50 nM	250.8 to 254.7 °C	–	–	CC1=C(O)C(=O)C=C2C1=CC=C1[C@@]2(C)CC[C@@]2(C)[C@@H]3C[C@](C)(C(=O)NCC45CCCN4CCC5)CC[C@]3(C)CC[C@]12C [compound 5, (2R,4aS,6aS,12bR,14aS,14bR)-N-((hexahydro-1H-pyrrolizin-7a-yl)methyl)-10-hydroxy-2,4a,6a,9,12b,14a-hexamethyl-11-oxo-1,2,3,4,4a,5,6,6a,11,12b,13,14,14a,14b-tetradecahydropicene-2-carboxamide]	–	–	–	1880 ± 340 nM
660 ± 60 nM	90 ± 30 nM	140 ± 30 nM	165.7 to 167.9 °C	–	–	CC1=C(O)C(=O)C=C2C1=CC=C1[C@@]2(C)CC[C@@]2(C)[C@@H]3C[C@](C)(C(=O)NCCNc4ccnc5cc(Cl)ccc45)CC[C@]3(C)CC[C@]12C [compound 6, (2R,4aS,6aS,12bR,14aS,14bR)-N-(2-((7-chloroquinolin-4-yl)amino)ethyl)-10-hydroxy-2,4a,6a,9,12b,14a-hexamethyl-11-oxo-1,2,3,4,4a,5,6,6a,11,12b,13,14,14a,14b-tetradecahydropicene-2-carboxamide]	–	–	–	850 ± 240 nM
–	2000 to 4000 nM	2000 to 4000 nM	–	2310 ± 280 nM	3070 ± 1360 nM	CC1=C(O)C(=O)C=C2C1=CC=C1[C@@]2(C)CC[C@@]2(C)[C@@H]3C[C@](C)(C(=O)NCCSS(C)(=O)=O)CC[C@]3(C)CC[C@]12C [compound 9, S-(2-((2R,4aS,6aS,12bR,14aS,14bR)-10-hydroxy-2,4a,6a,9,12b,14a-hexamethyl-11-oxo-1,2,3,4,4a,5,6,6a,11,12b,13,14,14a,14b-tetradecahydropicene-2-carboxamido)ethyl) methanesulfonothioate]	–	–	–	3280 ± 900 nM
